Source: patent EP4656640A1, “IRAK4 DEGRADER AND USE THEREOF” (Shanghai Qilu Pharmaceutical Research and Development …, priority 2023, dated 2024)
Where two headings read alike, the source gives them in different places.

Tests used:
[1] = Mouse pharmacokinetics, oral (Experiment 2); format: in vivo, C57BL/6 mice; settings: mice, PO 100 mg/kg, free access to food, plasma
Description: Two male C57BL/6 mice were allowed free access to food and water. The dose for PO administration was 100 mg/kg, with an administration volume of 10 mL/kg.
After administration, blood samples (0.025 mL) were collected from the mice via venipuncture at 0.083, 0.25, 0.5, 1, 2, 4, 8, and 24 hours. The samples were placed in EDTA-K2 tubes and centrifuged at 2000 g for 5 minutes at 4°C. The plasma was separated and stored at -70°C.
• 1) 5 µL of plasma sample was added to 100 µL of acetonitrile for precipitation. After mixing, the mixture was centrifuged at 5800 rmp for 10 minutes. • 2) The processed supernatant solution was taken for LCMS/MS analysis to determine the concentration of the test compound.
• LC-MS/MS instrument: LCMS/MS-45 (Triple Quad 6500+) • Chromatographic column: Waters BEH C18 (2.1 × 50 mm, 1.7 µm) • Mobile phase: Solution A was H2O-0.025% FA-1 mM NH4OAc, and Solution B was MeOH-0.025% FA-1 mM NH4OAc. • Flow rate: 0.6 mL/min • Elution time: Gradient elution for 0-2.5 minutes.
The main pharmacokinetic parameters were calculated using WinNonlin 8.2. […] Table 7. Pharmacokinetic parameters of some compounds of the present disclosure administered orally to mice

[2] = mice, 8 hours after last administration
Description: Experimental animals: SPF-grade male C57BL/6J mice aged 6-8 weeks.
Preparation of compound: 10% DMSO + 50% PEG400 + 40% sterile water for injection. The compound was dissolved in DMSO, followed by the addition of PEG400 and sterile water for injection, and the solution was adjusted to clarity with 6N hydrochloric acid.
Compound administration and IL-33 inflammatory induction: The mice were randomly grouped according to body weight and orally administered with the compound at final doses of 15 mg/kg, 50 mg/kg, and 150 mg/kg, twice daily. At 4 hours after the last administration of the compound, the mice were intraperitoneally injected with 1 µg/100 µL PBS of IL-33 for inflammatory induction.
Termination, sample collection, and data: Plasma, peritoneal lavage fluid, and spleen were collected for subsequent sample index detection.
The experiment was terminated 8 hours after the last administration. The mice were anesthetized, and cardiac blood was collected. The blood samples were anticoagulated with EDTA-K2, centrifuged at 3500 rpm for 15 minutes, and the upper plasma was collected.

IRAK4 = target: T1, IRAK4 (Homo sapiens, UniProt Q9NWZ3); format: cell-based; parameters: endogenous in cells; host or cells: OCI-LY3; settings: read-out: OCI-LY3 DC50; OCI-LY3 cells
T1 sequence (Q9NWZ3 1-460): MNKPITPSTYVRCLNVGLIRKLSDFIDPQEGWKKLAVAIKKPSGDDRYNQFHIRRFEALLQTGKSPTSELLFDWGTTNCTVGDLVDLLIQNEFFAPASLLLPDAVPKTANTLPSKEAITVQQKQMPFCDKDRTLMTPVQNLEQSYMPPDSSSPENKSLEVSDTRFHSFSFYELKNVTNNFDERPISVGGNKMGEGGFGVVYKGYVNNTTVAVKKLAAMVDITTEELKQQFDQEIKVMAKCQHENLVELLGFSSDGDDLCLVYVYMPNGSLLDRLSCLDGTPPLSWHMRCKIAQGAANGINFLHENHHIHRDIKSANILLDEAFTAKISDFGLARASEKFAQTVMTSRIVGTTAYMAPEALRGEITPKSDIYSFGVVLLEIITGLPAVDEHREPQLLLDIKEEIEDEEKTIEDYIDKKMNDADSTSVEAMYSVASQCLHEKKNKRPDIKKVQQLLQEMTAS

inflammatory factors = test: Inflammatory factors in plasma and peritoneal lavage fluid, IL-33-induced acute inflammation in mice (ELISA); format: in vivo, C57BL/6J mice; settings: FIG. 1
Description: IL-33, a member of the IL-1 cytokine family, is the ligand for IL-1 receptor-like 1 or ST2. […] The effect of the compounds on inflammation in the IL-1R signaling pathway was investigated using an acute inflammatory model in mice induced by intraperitoneal injection of IL-33.
Preparation of IL-33 inducer: The mouse recombinant IL-33 powder was prepared as a 1 µg/µL stock solution. When using, 40 µL of the 1 µg/µL IL-33 solution was added to 3960 µL of PBS, mixed well by inversion, to obtain 4 mL of IL-33 solution with a concentration of 1 µg/100 µL, which was prepared freshly before use.

[3] = Mouse pharmacokinetics, oral (Experiment 1); format: in vivo, C57BL/6 mice; settings: mice, PO 100 mg/kg, fasted overnight, plasma
Description: C57BL/6 mice were used as test animals to study the pharmacokinetic behavior of the compounds of the present disclosure in mouse plasma after oral administration at a dose of 100 mg/kg.
C57BL/6, male, transferred from the animal repository of the laboratory institution (999M-018).
Three male C57BL/6 mice were fasted overnight (10-14 hours) with free access to water one day before administration. The mice were fed 4 hours after administration. The dose for PO administration was 100 mg/kg, with an administration volume of 20 mL/kg.
After administration, blood samples (0.03 mL) were collected from the mice via venipuncture at 0.083, 0.25, 0.5, 1, 2, 4, 8, and 24 hours. The samples were placed in EDTA-K2 tubes and centrifuged at 6800 rpm for 5 minutes at 2-8°C. The plasma was separated and stored at -80°C.
• 1) 10 µL of plasma sample was added to 200 µL of methanol for precipitation. After mixing, the mixture was centrifuged at 18000 g for 10 minutes. • 2) The processed supernatant solution was taken for LC/MS/MS analysis to determine the concentration of the test compound.
• Liquid phase conditions: Shimadzu LC-30AD pump • Mass spectrometry conditions: AB Sciex API 5500 mass spectrometer • Chromatographic column: Phenomenex Kinetex 2.6 µm C18 50 3.0 mm • Mobile phase: Solution A was 0.1% formic acid in water, and solution B was 0.1% formic acid in acetonitrile • Flow rate: 0.6 mL/min • Elution time: Gradient elution for 0-1.6 minutes.
The main pharmacokinetic parameters were calculated using WinNonlin 8.0.

Row | Compound | AUC(0-t) at 24 h [1] | Cmax [1] | Tmax [1] | C8hr Plasma ([2]; PO 15 mpk twice daily) | C8hr Spleen ([2]; PO 15 mpk twice daily) | C8hr Plasma ([2]; PO 50 mpk twice daily) | C8hr Spleen ([2]; PO 50 mpk twice daily) | C8hr Plasma ([2]; PO 150 mpk twice daily) | C8hr Spleen ([2]; PO 150 mpk twice daily) | DC50 (IRAK4) | anti-inflammatory effect compared with KT474 (inflammatory factors; at comparable drug concentrations in plasma) | inflammatory factors in mouse plasma and peritoneal lavage fluid (inflammatory factors; mice, PO 15, 50 and 150 mg/kg, IL-33 induction) | AUC(0-inf) [3] | AUC(0-t) at 24 h [3] | Cmax [3] | MRT inf [3] | Tmax [3] | half-life [3]
1 | Cn1c(=O)n(C2CCC(=O)NC2=O)c2cccc(C#CCOC34CCC(CN5CCC6(CC5)CC(n5cc(NC(=O)c7cnn8ccc(N9C[C@H]%10C[C@@H]9CO%10)nc78)c(C(F)F)n5)C6)(CC3)CC4)c21 (stereo partly drawn) [Example 52] | 40100 ng·h/mL | 2200 ng/mL | 8 h |  |  |  |  |  |  |  |  |  |  |  |  |  |  | 
2 | Cn1c(=O)n(C2CCC(=O)NC2=O)c2cccc(C#CCCN3CCC4(CC3)CC(n3cc(NC(=O)c5cnn6ccc(N7C[C@H]8C[C@@H]7CO8)nc56)c(C(F)F)n3)C4)c21 (stereo partly drawn) [Example 22] |  |  |  | 54 ng/mL | 369 ng/mL | 517 ng/mL | 6135 ng/mL | 1392 ng/mL | 16257 ng/mL | 1.3 nM | superior | concentration-dependent reduction | 18400 ng·h/mL | 17600 ng·h/mL | 1400 ng/mL | 8 h | 1.7 h | 5.4 h
